The test deals with ATF4 luciferase reporter in HEK293T cells. Kind of test: ATF4-Luc assay (ATF4 luciferase reporter, tunicamycin-treated HEK293T cells). The note with it: Homo sapiens, HEK-293T; HEK293T cells carrying the ATF4 luciferase reporter, 1 μg/mL tunicamycin, 7 hours. In kind it is cell-based, human.

Bounds are passed on as bounds.

In general, EC50 refers to the concentration needed to bring the measured effect to its halfway point. In the case of `O=C(COc1ccc2c(c1)OC(F)(F)O2)NC12CCC(NC(=O)COc3ccc(Cl)cc3)(CC1)[C@@H](O)C2` [Compound 799, 2-(4-chlorophenoxy)-N-[(2S)-4-{2-[(2,2-difluoro-2H-1,3-benzodioxol-5-yl)oxy]acetamido}-2-hydroxybicyclo[2.2.2]octan-1-yl]acetamide], the EC50 is less than 10 nM. For the molecule `O=C(COc1ccc(Cl)c(F)c1)NC12CCC(NC(=O)COc3ccc(Cl)c(F)c3)(CC1)C(=O)N2` [Compound 603, N,N′-(3-oxo-2-azabicyclo[2.2.2]octane-1,4-diyl)bis[2-(4-chloro-3-fluorophenoxy)acetamide]], the EC50 is less than 10 nM. Consider `O=C(COc1ccc(Cl)cc1)NC12CCC(NC(=O)COc3ccc(Cl)c(F)c3)(CC1)[C@@H](O)C2` [Compound 437, 2-(4-chloro-3-fluorophenoxy)-N-{(2S)-4-[2-(4-chlorophenoxy)acetamido]-2-hydroxybicyclo[2.2.2]octan-1-yl}acetamide], for which the 50% effective concentration (EC50) is less than 10 nM. In the case of `O=C(COc1ccc(OC(F)(F)F)c(F)c1)NC12CCC(NC(=O)COc3ccc(Cl)cc3)(CC1)[C@@H](O)C2` [Compound 759, 2-(4-chlorophenoxy)-N-[(2S)-4-{2-[3-fluoro-4-(trifluoromethoxy)phenoxy]acetamido}-2-hydroxybicyclo[2.2.2]octan-1-yl]acetamide], the EC50 was less than 10 nM. With `CS(=O)(=O)c1ccc(OCC(=O)NC23CCC(NC(=O)COc4ccc(F)cc4)(CC2)[C@@H](O)C3)cc1F` [Compound 767, 2-[3-fluoro-4-(methanesulfonyl)phenoxy]-N-{(3S)-4-[2-(4-fluorophenoxy)acetamido]-3-hydroxybicyclo[2.2.2]octan-1-yl}acetamide], the concentration for a half-maximal effect (EC50) is 250 to 500 nM. Take `O=C(COc1ccc(Cl)c(F)c1)NC12CCC(NC(=O)COc3ccc(OC(F)F)c(F)c3)(CC1)[C@@H](O)C2` [Compound 802, 2-(4-chloro-3-fluorophenoxy)-N-[(3S)-4-{2-[4-(difluoromethoxy)-3-fluorophenoxy]acetamido}-3-hydroxybicyclo[2.2.2]octan-1-yl]acetamide]: the EC50 was less than 10 nM. As for `O=C(COc1ccc(Cl)c(F)c1)NC12CCCC(NC(=O)COc3ccc(Cl)c(F)c3)(C1)C2` [Compound 179, N,N′-(bicyclo[3.1.1]heptane-1,5-diyl)bis[2-(4-chloro-3-fluorophenoxy)acetamide]], the EC50 was greater than 2000 nM.

As for `Cc1ccc(OCC(=O)NC23CC(NC(=O)COc4ccc(Cl)c(F)c4)(C2)C3)cc1` [Compound 460, 2-(4-chloro-3-fluorophenoxy)-N-{3-[2-(4-methylphenoxy)acetamido]bicyclo[1.1.1]pentan-1-yl}acetamide], the EC50 lay in the range of 10 to 50 nM.

In the case of `O=C(CCOCc1cccc(Cl)c1)NC12CC(NC(=O)COc3ccc(Cl)c(Cl)c3)(C1)C2` [Compound 167, 3-[(3-chlorophenyl)methoxy]-N-{3-[2-(3,4-dichlorophenoxy)acetamido]-bicyclo[1.1.1]pentan-1-yl}propanamide], the EC50 fell in the range of 500 to 2000 nM. In the case of `O=C(COc1ccc2c(c1)OC(F)(F)O2)NC12CCC(NC(=O)COc3ccc(F)c(F)c3)(CC1)[C@@H](O)C2` [Compound 804, 2-[(2,2-difluoro-2H-1,3-benzodioxol-5-yl)oxy]-N-{(3S)-4-[2-(3,4-difluorophenoxy)acetamido]-3-hydroxybicyclo[2.2.2]octan-1-yl}acetamide], the EC50 is less than 10 nM. Regarding `Cc1cc2nc(CNC34CCC(NC(=O)COc5ccc(C(F)(F)F)c(F)c5)(CC3)[C@@H](O)C4)[nH]c2cc1C` [Compound 673, N-[(2S)-4-{[(5,6-dimethyl-1H-benzimidazol-2-yl)methyl]amino}-2-hydroxybicyclo[2.2.2]octan-1-yl]-2-[3-fluoro-4-(trifluoromethyl)phenoxy]acetamide], the EC50 is 50 to 250 nM.

Take `O=C(COc1ccc(F)c(OC(F)(F)F)c1)NC12CCC(NC(=O)COc3ccc(Cl)c(F)c3)(CC1)[C@@H](O)C2` [Compound 820, 2-(4-chloro-3-fluorophenoxy)-N-[(2S)-4-{2-[4-fluoro-3-(trifluoromethoxy)phenoxy]acetamido}-2-hydroxybicyclo[2.2.2]octan-1-yl]acetamide]: the EC50 is less than 10 nM.

On to `CN(CC(=O)O)C1CC2(NC(=O)COc3ccc(Cl)c(F)c3)CCC1(NC(=O)COc1ccc(Cl)c(F)c1)CC2` (stereo not drawn) [Compound 700, [{1,4-bis[2-(4-chloro-3-fluorophenoxy)acetamido]bicyclo[2.2.2]octan-2-yl}(methyl)amino]acetic Acid], for which the EC50 lay within 250 to 500 nM.

Turning to `O=C(COc1ccc(Cl)c(F)c1)NC12CC(NC(=O)COc3ccnn3C3CC3)(C1)C2` [Compound 371, 2-(4-chloro-3-fluorophenoxy)-N-(3-{2-[(1-cyclopropyl-1H-pyrazol-5-yl)oxy]acetamido}bicyclo[1.1.1]pentan-1-yl)acetamide], the EC50 lay within 250 to 500 nM.

`O=C(COc1ccc(Cl)c(F)c1)NC12CCC(NC(=O)COc3ccc4c(c3)OC(F)(F)O4)(CC1)C(O)C2` (stereo not drawn) [Compound 305, 2-(4-chloro-3-fluorophenoxy)-N-(4-{2-[(2,2-difluoro-2H-1,3-benzodioxol-5-yl)oxy]acetamido}-3-hydroxybicyclo[2.2.2]octan-1-yl)acetamide]: the EC50 is less than 10 nM. Next, `O=C(COc1ccc(F)c(Cl)c1)NC12CCC(NC(=O)COc3ccc(Cl)c(Cl)c3)(CC1)[C@@H](O)C2` [Compound 544, 2-(3-chloro-4-fluorophenoxy)-N-{(3S)-4-[2-(3,4-dichlorophenoxy)acetamido]-3-hydroxybicyclo[2.2.2]octan-1-yl}acetamide]: less than 10 nM. Consider `O=C(COc1ccc(Cl)c(F)c1)NC12CC(NC(=O)COc3ccc4c(c3)OC(F)(F)O4)(C1)C2` [Compound 258, 2-(4-chloro-3-fluorophenoxy)-N-(3-{2-[(2,2-difluoro-2H-1,3-benzodioxol-5-yl)oxy]acetamido}bicyclo[1.1.1]pentan-1-yl)acetamide], for which the EC50 is less than 10 nM.

Take `O=C(COc1ccc(Cl)c(F)c1)NC12CC(NC(=O)OCc3ccccc3)(C1)C2` [Compound 192, benzyl {3-[2-(4-chloro-3-fluorophenoxy)acetamido]bicyclo[1.1.1]pentan-1-yl}carbamate]: the 50% effective concentration (EC50) fell in the range of 500 to 2000 nM. Turning to `O=C(COc1ccc(Cl)c(F)c1)NC12CCC(NC(=O)Cc3cccc(OC(F)(F)F)c3)(CC1)C(O)C2` (stereo not drawn) [Compound 327, 2-(4-chloro-3-fluorophenoxy)-N-(3-hydroxy-4-{2-[3-(trifluoromethoxy)phenyl]acetamido}bicyclo[2.2.2]octan-1-yl)acetamide], the EC50 was greater than 2000 nM. On to `CCCN1C(=O)C2(NC(=O)COc3ccc(Cl)c(F)c3)CCC1(NC(=O)COc1ccc(Cl)c(F)c1)CC2` [Compound 677, N,N′-(3-oxo-2-propyl-2-azabicyclo[2.2.2]octane-1,4-diyl)bis[2-(4-chloro-3-fluorophenoxy)acetamide]], for which the EC50 is 500 to 2000 nM.

As for `O=C(COc1ncc(C(F)(F)F)cn1)NC12CCC(NC(=O)COc3ccc(Cl)c(F)c3)(CC1)[C@@H](O)C2` [Compound 630, 2-(4-chloro-3-fluorophenoxy)-N-[(2S)-2-hydroxy-4-(2-{[5-(trifluoromethyl)pyrimidin-2-yl]oxy}acetamido)bicyclo[2.2.2]octan-1-yl]acetamide], the 50% effective concentration (EC50) is less than 10 nM. As for `O=C(COc1ccc(Cl)c(F)c1)NC12CC(NS(=O)(=O)Cc3ccc(F)cc3)(C1)C2` [Compound 487, 2-(4-chloro-3-fluorophenoxy)-N-(3-{[(4-fluorophenyl)methanesulfonyl]amino}bicyclo[1.1.1]pentan-1-yl)acetamide], the EC50 is greater than 2000 nM. Next, `O=C(COc1ccc(Cl)cc1)NC12CC(NC(=O)COc3cccc(C(F)(F)F)n3)(C1)C2` [Compound 836, 2-(4-chlorophenoxy)-N-[3-(2-{[6-(trifluoromethyl)pyridin-2-yl]oxy}acetamido)bicyclo[1.1.1]pentan-1-yl]acetamide]: 250 to 500 nM. Take `O=C(COc1ccc(Cl)c(F)c1)NC12CC(NC(=O)OCCCc3cccc(Cl)c3)(C1)C2` [Compound 166, 3-(3-chlorophenyl)propyl {3-[2-(4-chloro-3-fluorophenoxy)acetamido]-bicyclo[1.1.1]pentan-1-yl}carbamate]: the EC50 lay within 250 to 500 nM. As to `Nc1ncc(OCC(=O)NC23CC(NC(=O)COc4ccc(Cl)c(F)c4)(C2)C3)cc1Cl` [Compound 250, 2-[(6-amino-5-chloropyridin-3-yl)oxy]-N-{3-[2-(4-chloro-3-fluorophenoxy)acetamido]bicyclo[1.1.1]pentan-1-yl}acetamide], the EC50 was 50 to 250 nM.

For the molecule `O=C(COc1ccc(Cl)c(F)c1)NC12CCC(NC(=O)COc3cnn(CC(F)(F)F)c(=O)c3)(CC1)C(O)C2` (stereo not drawn) [Compound 334, 2-(4-chloro-3-fluorophenoxy)-N-[3-hydroxy-4-(2-{[6-oxo-1-(2,2,2-trifluoroethyl)-1,6-dihydropyridazin-4-yl]oxy}acetamido)bicyclo[2.2.2]octan-1-yl]acetamide], the EC50 lay in the range of 500 to 2000 nM. Turning to `COC(=O)[C@@H]1CC2(NC(=O)COc3ccc(Cl)c(F)c3)CCC1(NC(=O)COc1ccc(Cl)c(F)c1)CC2` [Compound 563, methyl (2R)-1,4-bis[2-(4-chloro-3-fluorophenoxy)acetamido]bicyclo[2.2.2]octane-2-carboxylate], the EC50 was less than 10 nM. Turning to `CS(=O)(=O)c1ccc(OCC(=O)NC23CCC(NC(=O)COc4ccc(Cl)c(F)c4)(CC2)[C@@H](O)C3)cc1F` [Compound 769, 2-(4-chloro-3-fluorophenoxy)-N-[(2S)-4-{2-[3-fluoro-4-(methanesulfonyl)phenoxy]acetamido}-2-hydroxybicyclo[2.2.2]octan-1-yl]acetamide], the EC50 is 10 to 50 nM. Take `COc1ncc(OCC(=O)NC23CCC(NC(=O)COc4cnc(OC)nc4)(CC2)[C@@H](O)C3)cn1` [Compound 626, N,N′-[(2S)-2-hydroxybicyclo[2.2.2]octane-1,4-diyl]bis{2-[(2-methoxypyrimidin-5-yl)oxy]acetamide}]: the EC50 is greater than 2000 nM. Regarding `O=C(COc1ccc(Cl)c(F)c1)NC12CC(NC(=O)COc3ccc(C(F)(F)F)nn3)(C1)C2` [Compound 256, 2-(4-chloro-3-fluorophenoxy)-N-[3-(2-{[6-(trifluoromethyl)pyridazin-3-yl]oxy}acetamido)bicyclo[1.1.1]pentan-1-yl]acetamide], the EC50 was 50 to 250 nM.

Source of the values: patent US20240166652A1, “MODULATORS OF THE INTEGRATED STRESS PATHWAY” (Calico Life Sciences LLC, priority 2017, published 2024).
